Source: US9737559B2, “Synergistic anti-diabetic compositions” (Ozstar Therapeutics Pty Ltd, priority 2011, dated 2017)

Experiments:
Assay type in all cases: in vivo, human
patient with T2DM [1] = assay: Gliclazide/inulin combination therapy, extended case report: FBG, HA1C and lipid profiles; conditions: Gliclazide 30 mg once daily for nearly a decade, before inulin
Source text: This patient began the combination therapy with a commercially available inulin (Cl) as previously described in PCT/AU2011/000622, the contents of which are incorporated herein in their entirety. Various blood parameter measurements were as described PCT/AU2011/000622.

patient with T2DM [2] = assay: Glimepiride/inulin combination therapy, T2DM case report, FBG
Procedure: Doctor recommended diet-only treatment. […] The dose was increased in a 1 mg increment and currently this patient is taking 4 mg once daily Glimepiride. [table] Blood sugar level was determined using Accu-Chek Performa (Roche, Mannheim, Germany) device (CAT/TYP 04680464003 mmol/L and 55405079196) according to manufacturer instructions. During baseline measurements of FBG levels, patient was on Glimepiride at the dose of 4 mg once daily.

patient with T2DM [3] = assay: Glipizide/inulin combination therapy, T2DM case report, FBG
Procedure: person, with body mass index of 29 classified as overweight, with the family history of T2DM.
[…] the patient was diagnosed with T2DM. Doctor recommended diet-only treatment. […] due to increased FBG levels the patient was treated with Glipizide (5 mg/day, 5 mg once daily). The dose was increased in a 5 mg increment and currently this patient is taking 15 mg/day, 5 mg three times a day, Glipizide.
Blood sugar level was determined using Accu-Chek Performs (Roche, Mannheim, Germany) device (CAT/TYP 04680464002 mmol/L and 55403057614) according to manufacturer instructions.
During baseline measurements of FBG level, patient was on Glipizide at the dose of 15 mg per day.
inulin introduced at 3 g/day (1 g with each meal, 3 times a day) for one week. Inulin amount was increased to 6 g/day (2 g with each meal, 3 times a day) at week 2, 9 g/day (3 g with each meal, 3 times a day) at week 3 and 12 g/day (4 g with each meal, 3 times a day) at week 4.
Patient continued taking inulin with meal at 4 g/meal (12 gr/day total).

How did the blood glucose levels (patient with T2DM [1]) turn out when `Cc1ccc(S(=O)(=O)NC(=O)NN2CC3CCCC3C2)cc1` (centres unmarked) [Gliclazide] was run?
Its blood glucose levels is “above 9 mmol/L”.

How did the FBG at baseline (patient with T2DM [2]; Glimepiride 4 mg once daily, no inulin, June 2011) turn out when `CCC1=C(C)CN(C(=O)NCCc2ccc(S(=O)(=O)NC(=O)N[C@H]3CC[C@H](C)CC3)cc2)C1=O` [Glimepiride] was run?
The FBG at baseline was about 8 mmol/L.

What about the “FBG level prior to inulin combination therapy” value (patient with T2DM [2]; Glimepiride monotherapy, a couple of years prior to inulin) of the same compound?
Its value is “above 7 mmol/L”.

`Cc1cnc(C(=O)NCCc2ccc(S(=O)(=O)NC(=O)NC3CCCCC3)cc2)cn1` [Glipizide] was tested. Which FBG at baseline (patient with T2DM [3]; Glipizide 15 mg per day, no inulin, July 2011) did it give?
The FBG at baseline was about 6.5 mmol/L.

What about the “FBG level prior to inulin combination therapy” value (patient with T2DM [3]; Glipizide monotherapy, a couple of years prior to inulin) of the same compound?
Its value is “around 7 mmol/L”.
